Article PMC10916352, “Safety Evaluation of a Prototypical Diazirine-Based Covalent Crosslinker and Molecular Adhesive” (International Journal of Toxicology, 2023)
Structures can show the parent of a compound that is named as a salt.

Experiments:
[1] = system: Salmonella typhimurium TA100; experiment: Bacterial reverse mutation test (Ames), strain TA100; format: cell-based; conditions: positive control tested singular
Method: (§1) The reverse mutation test was performed to determine the potential of BondLynx and/or its metabolites to induce reverse mutations at the histidine locus of Salmonella typhimurium.[26],[27] The test employs strains of Salmonella typhimurium carrying mutations in the genes involved in histidine production, such that they are only able to grow in histidine supplemented culture media. Upon exposure to mutagenic materials, these mutations may be reversed, thereby restoring the ability to grow in histidine-free media. When grown in the presence of the test compound on media with a small amount of histidine, tester strains grow briefly to allow the opportunity for mutation, followed by proliferation of revertant colonies upon depletion of the provided histidine. Thus, the number of revertant colonies following incubation is indicative of the ability of the test compound to induce mutations.
(§2) Tests were performed on two strains of the bacteria (TA98 and TA100) in the absence and presence of an exogenous mammalian metabolic activation system (5% v/v S9). Positive controls and BondLynx were suspended in dimethyl sulfoxide (DMSO) for testing, and DMSO served as the vehicle control. Positive controls consisted of 2-nitrofluorene (10 μg/plate) for the TA98 strain without S9, methyl mesylate (650 μg/plate) for the TA100 strain without S9, and 2-aminoanthracene for both strains with S9 (1 μg/plate for TA98 and 5 μg/plate for TA100). Eight concentrations of BondLynx (1.7, 5.4, 17, 52, 164, 512, 1600 and 5000 μg/plate) were tested in triplicate. The vehicle control was tested in triplicate and the positive controls were tested singular.
(§3) Test solutions were prepared by pre-incubating .1 mL fresh bacterial culture (10^9 cells/mL), .1 mL of a BondLynx dilution or control solution, and .5 mL of S9 mix or .1 M phosphate buffer for 30 min before adding to 3 mL of molten (45 ± 2°C) top agar. After mixing in a vortex, agar solutions were poured onto selective agar plates. Upon solidification, the prepared plates were inverted and incubated at 37.0 ± 1.0°C for 48 ± 4 h. Following incubation, revertant colonies were counted with a Sorcerer Colony Counter. The condition of the bacterial background lawn was evaluated macroscopically and/or microscopically using a dissecting microscope when considered necessary.

[2] = system: Salmonella typhimurium TA98; experiment: Bacterial reverse mutation test (Ames), strain TA98; format: cell-based; conditions: positive control tested singular
Method: as §1, §2, §3

[3] = system: Balb/c 3T3 fibroblasts (clone 31); experiment: 3T3 Neutral Red uptake cytotoxicity and phototoxicity assay; conditions: for Corrected Mean OD540: 8 wells; for Photo Irritation Factor (PIF): non-irradiated IC50 divided by irradiated IC50
Method: (§4) The 3T3 Neutral Red uptake assay was used to evaluate the phototoxicity of BondLynx. The NRU assay makes use of Neutral Red dye, a weak cationic dye that penetrates the cell membrane by non-ionic passive diffusion and accumulates in lysosomes. Cytotoxicity of the test material is evaluated by measuring the OD540 to assess the uptake of Neutral Red dye.[28],[29] […] By measuring cytotoxicity in the absence vs presence of UV and visible light, the phototoxicity of the test material can be determined.[30],[31]
(§5) Cells were routinely trypsinized and passaged, at least once weekly, with a split ratio 1:3 to 1:4 to achieve a near confluent culture.
(§6) Stock solutions of both controls were freshly prepared on the day of testing. The vehicle control was 1% DMSO in EBSS for the positive control, EBSS for the negative control, and .5% ethanol in EBSS for BondLynx. BondLynx was dissolved in ethanol for testing. […] All controls and BondLynx were handled in the dark and tested in 8-fold.
(§7) In preparation for testing, cultures of 3T3 fibroblasts were trypsinized and resuspended in culture medium. […] A total of six plates were prepared in this manner – two each for the positive control, the negative control, and BondLynx. Following incubation, the cell culture medium was removed, and the wells washed with DPBS (Dulbecco’s phosphate-buffered saline). A 200 μL aliquot of each dilution of the test compound (BondLynx or a control) was added the first eight columns, and the appropriate vehicle control was added to the last four columns. All plates were incubated an additional 60 min before irradiating one plate for each test compound (+Irr) in a solar simulator with a WG320 nm filter for 22 min (equivalent to 5 J/cm^2 UV-A), while the second plate for each test compound (–Irr) was kept in the dark at room temperature. Subsequently, the test solutions were removed from the plates, and the cells were washed once with DPBS and suspended in 200 μL of supplemented DMEM to incubate for an additional 20-24 h.
(§8) Immediately following incubation, the confluency of each plate was visually assessed, and the culture medium was replaced with 100 μL of Neutral Red dye (50 μg/mL). The plates were incubated another 3.5 h before removing the dye, washing with 150 μL of DPBS, and shaking for 20-40 min in 150 μL Neutral Red destain solution (ethanol:acetic acid:distilled water, 50:1:49). The optical density at 540 nm was measured for each well and corrected by subtracting the appropriate blank.

[4] = system: EPISKIN Small Model (human epidermis model); experiment: In vitro skin irritation test, MTT viability; format: cell-based; conditions: 15 min exposure, 42 h post-incubation
Method: Tests were performed in triplicate. […] Following exposure, samples were rinsed with phosphate buffered saline until no test item remain, dried carefully, and placed in a new 2 mL well with pre-warmed Maintenance Medium to incubate for 42 h. After incubation, cell culture inserts were dried carefully, transferred into a 12-well plate prefilled with 2 mL MTT in phosphate buffered saline (.3 mg/mL), and incubated for 3 h. Tissue samples were then dried, and a biopsy punch was taken. The epidermis was separated from the collagen matrix, and both were extracted with 500 μL isopropanol and stored for 70 h refrigerated. The amount of extracted formazan was measured in duplicate for each sample by the OD570.

[5] = 3T3 Neutral Red uptake cytotoxicity and phototoxicity assay; conditions: mouse, Viability (%)
Method: as §4, §5, §6, §7, §8

For `Nc1ccc2cc3ccccc3cc2c1` [2-aminoanthracene, reference compound], the “Revertant Colonies (With S9)” value ([1]; TA100, with S9, 5 μg/plate) was 363 and the “Revertant Colonies (With S9)” value ([2]; TA98, with S9, 1 μg/plate) was 657.

In the case of `O=[N+]([O-])c1ccc2c(c1)Cc1ccccc1-2` [2-nitrofluorene, reference compound], the “Revertant Colonies (Without S9)” value ([2]; TA98, without S9, 10 μg/plate) is reported as 1962.

In the case of `COS(C)(=O)=O` [Methyl mesylate, methyl mesylate, reference compound], the “Revertant Colonies (Without S9)” value ([1]; TA100, without S9, 650 μg/plate) is reported as 646.

In the case of `CCCCCCCCCCCCOS(=O)(=O)[O-].[Na+]` [SDS, sodium dodecyl sulphate], the “Viability (%)” value ([3]; +Irr, 0.1 μg/mL) is reported as 100.0%, the “Corrected Mean OD540” value ([3]; +Irr, 0.1 μg/mL) is reported as 1.17 and the “Viability (%)” value ([3]; +Irr, 0.316 μg/mL) is reported as 99.1%. For the same compound, the “Corrected Mean OD540” value ([3]; +Irr, 0.316 μg/mL) was 1.16, the “Viability (%)” value ([3]; +Irr, 1 μg/mL) was 101.7% and the “Corrected Mean OD540” value ([3]; +Irr, 1 μg/mL) was 1.19. The “Viability (%)” value ([3]; +Irr, 3.16 μg/mL) was 100.0%, the “Corrected Mean OD540” value ([3]; +Irr, 3.16 μg/mL) was 1.17 and the “Viability (%)” value ([3]; +Irr, 10 μg/mL) was 95.7%. For the same compound, the “Corrected Mean OD540” value ([3]; +Irr, 10 μg/mL) was 1.12, the “Viability (%)” value ([3]; +Irr, 31.6 μg/mL) was 18.8% and the “Corrected Mean OD540” value ([3]; +Irr, 31.6 μg/mL) was 0.22. The “Viability (%)” value ([3]; +Irr, 100 μg/mL) was 0.6%, the “Corrected Mean OD540” value ([3]; +Irr, 100 μg/mL) was 0.007 and the “Viability (%)” value ([3]; +Irr, 316 μg/mL) was 0.5%. The “Corrected Mean OD540” value ([3]; +Irr, 316 μg/mL) was 0.006, the “IC50 (50% inhibition of Neutral Red uptake), presence of irradiation” value ([3]; +Irr, 5 J/cm^2 UV-A) was 21.65 µg/mL and the “Photo Irritation Factor (PIF)” value [3] was 1.14. The “IC50 (50% inhibition of Neutral Red uptake), absence of irradiation” value ([3]; –Irr) was 27.4 µg/mL, the “Viability (%)” value ([3]; –Irr, 0.1 μg/mL) was 102.0% and the “Corrected Mean OD540” value ([3]; –Irr, 0.1 μg/mL) was 1.25. For the same compound, the “Viability (%)” value ([3]; –Irr, 0.316 μg/mL) was 99.6%, the “Corrected Mean OD540” value ([3]; –Irr, 0.316 μg/mL) was 1.22 and the “Viability (%)” value ([3]; –Irr, 1 μg/mL) was 101.2%. The “Corrected Mean OD540” value ([3]; –Irr, 1 μg/mL) was 1.24, the “Viability (%)” value ([3]; –Irr, 3.16 μg/mL) was 101.2% and the “Corrected Mean OD540” value ([3]; –Irr, 3.16 μg/mL) was 1.24. The “Viability (%)” value ([3]; –Irr, 10 μg/mL) was 98.8%, the “Corrected Mean OD540” value ([3]; –Irr, 10 μg/mL) was 1.21 and the “Viability (%)” value ([3]; –Irr, 31.6 μg/mL) was 26.1%. For the same compound, the “Corrected Mean OD540” value ([3]; –Irr, 31.6 μg/mL) was 0.32, the “Viability (%)” value ([3]; –Irr, 100 μg/mL) was 0.2% and the “Corrected Mean OD540” value ([3]; –Irr, 100 μg/mL) was 0.003. The “Viability (%)” value ([3]; –Irr, 316 μg/mL) was 0.04%, the “Corrected Mean OD540” value ([3]; –Irr, 316 μg/mL) was 0.0005 and the “Mean ± SD (OD570 corrected)” value [4] was “.039 ± .005”. For the same compound, the “Cell Viability (%)” value ([4]; relative to phosphate buffered saline) was 4.0%.

For `c1ccc2cc3ccccc3cc2c1` [anthracene], the “Corrected Mean OD540” value ([3]; +Irr, 0.01 μg/mL) was 1.09, the “Corrected Mean OD540” value ([3]; +Irr, 0.0316 μg/mL) was 0.67 and the “Corrected Mean OD540” value ([3]; +Irr, 0.1 μg/mL) was 0.043. The “Corrected Mean OD540” value ([3]; +Irr, 0.316 μg/mL) was 0.046, the “Corrected Mean OD540” value ([3]; +Irr, 1 μg/mL) was 0.047 and the “Corrected Mean OD540” value ([3]; +Irr, 3.16 μg/mL) was 0.047. For the same compound, the “Corrected Mean OD540” value ([3]; +Irr, 10 μg/mL) was 0.037, the “Corrected Mean OD540” value ([3]; +Irr, 31.6 μg/mL) was 0.089 and the IC50 ([3]; Mus musculus, BALB/c3T3, light or radiation study, read-out: IC50 (50% inhibition of Neutral Red uptake), presence of irradiation) was 0.03 µg/mL. The “Photo Irritation Factor (PIF)” value [3] was greater than 31.6, the “IC50 (50% inhibition of Neutral Red uptake), absence of irradiation” value ([3]; –Irr) was “no IC50” and the “Corrected Mean OD540” value ([3]; –Irr, 0.01 μg/mL) was 1.15. For the same compound, the “Corrected Mean OD540” value ([3]; –Irr, 0.0316 μg/mL) was 1.14, the “Corrected Mean OD540” value ([3]; –Irr, 0.1 μg/mL) was 1.14 and the “Corrected Mean OD540” value ([3]; –Irr, 0.316 μg/mL) was 1.13. For the same compound, the “Corrected Mean OD540” value ([3]; –Irr, 1 μg/mL) was 1.12, the “Corrected Mean OD540” value ([3]; –Irr, 3.16 μg/mL) was 1.13 and the “Corrected Mean OD540” value ([3]; –Irr, 10 μg/mL) was 1.13. For the same compound, the “Corrected Mean OD540” value ([3]; –Irr, 31.6 μg/mL) was 1.15, the viability at 82 min, 0.01 μg/mL ([5]; +Irr) was 98.1% and the viability at 82 min, 0.0316 μg/mL ([5]; +Irr) was 60.3%. For the same compound, the viability at 82 min, 0.1 μg/mL ([5]; +Irr) was 3.9%, the viability at 82 min, 0.316 μg/mL ([5]; +Irr) was 4.1% and the viability at 82 min, 1 μg/mL ([5]; +Irr) was 4.2%. It also gave a viability at 82 min, 3.16 μg/mL ([5]; +Irr) of 4.2%, a viability at 82 min, 10 μg/mL ([5]; +Irr) of 3.3% and a viability at 82 min, 31.6 μg/mL ([5]; +Irr) of 8.01%. For the same compound, the viability at 82 min, 0.01 μg/mL ([5]; –Irr) was 103%, the viability at 82 min, 0.0316 μg/mL ([5]; –Irr) was 102% and the viability at 82 min, 0.1 μg/mL ([5]; –Irr) was 102%. For the same compound, the viability at 82 min, 0.316 μg/mL ([5]; –Irr) was 101%, the viability at 82 min, 1 μg/mL ([5]; –Irr) was 100% and the viability at 82 min, 3.16 μg/mL ([5]; –Irr) was 101%. It also gave a viability at 82 min, 10 μg/mL ([5]; –Irr) of 101% and a viability at 82 min, 31.6 μg/mL ([5]; –Irr) of 103%.
